In experiment [1] the test system is Melanin-concentrating hormone receptor (Synbranchus marmoratus). Briefly: Melanin concentrating hormone(MCH) activity, causes melanosome aggregation within integumental fish melanocytes and lightening of the skin; d = Inactive at 10e-6 M.
The subject of experiment [2] is melanocortin receptor (frog). Put plainly: Melanosome dispersion (skin darkening) within melanocytes (Alpha-MSH-like activity), measured on tetrapod skin; Inactive at 10e-5.
Experiment [3] concerns melanocortin receptor (frog). Briefly: Melanosome dispersion (skin darkening) within melanocytes (Alpha-MSH-like activity), measured on tetrapod skin; e = Inactive at 10e-5.
Experiment [4] concerns melanocortin receptor (frog). Briefly: Melanosome dispersion (skin darkening) within melanocytes (Alpha-MSH-like activity), measured on tetrapod skin; e =Inactive at 10e-5.
Experiment [5] relates to Melanin-concentrating hormone receptor (Synbranchus marmoratus). Put plainly: Melanin concentrating hormone(MCH) activity, causes melanosome aggregation within integumental fish melanocytes and lightening of the skin; d = Inactive at 10e-6 M. The source holds these as a separate data set.

Structures are written as SMILES. Bridge positions count the residues as written; N and C are the ends. Peptide text beside a SMILES is read from it.

Results on nine molecules are retold here after ChEMBL document CHEMBL1124113, “Melanin concentrating hormone analogues: contraction of the cyclic structure. 1. Agonist activity” (J Med Chem, 1988).

As to `CSCC[C@H](NC(=O)[C@H](C)N)C(=O)N[C@H](C(=O)NCC(=O)N[C@@H](CCCN=C(N)N)C(=O)N[C@H]1CSSC[C@@H](C(=O)N[C@@H](Cc2c[nH]c3ccccc23)C(=O)N[C@@H](CCC(=O)O)C(=O)N[C@H](C(=O)O)C(C)C)NC(=O)[C@@H]2CCCN2C(=O)[C@H](CCCN=C(N)N)NC(=O)[C@H](Cc2ccc(O)cc2)NC1=O)C(C)C` (H-AMVGRCYRPCWEV-OH; disulfide 6-10), the EC50 result in experiment [1] was “Not Active”.
As to `CC(C)[C@H](NC(=O)[C@H](CCC(=O)O)NC(=O)[C@H](Cc1c[nH]c2ccccc12)NC(=O)[C@@H]1CSSC[C@H](N)C(=O)N[C@@H](CCCN=C(N)N)C(=O)N[C@@H](C(C)C)C(=O)N[C@@H](Cc2ccc(O)cc2)C(=O)N[C@@H](CCCN=C(N)N)C(=O)N2CCC[C@H]2C(=O)N1)C(=O)O` (H-CRVYRPCWEV-OH; disulfide 1-7), the EC50 entry in experiment [2] is reported as “Not Active”.
Consider `CSCC[C@H](NC(=O)[C@H](C)NC(=O)[C@H](CCCN=C(N)N)NC(=O)[C@H](CCSC)NC(=O)[C@@H](NC(=O)[C@@H](N)CC(=O)O)[C@@H](C)O)C(=O)N[C@H](C(=O)N[C@H]1CSSC[C@@H](C(=O)N[C@@H](Cc2c[nH]c3ccccc23)C(=O)N[C@@H](CCC(=O)O)C(=O)N[C@H](C(=O)O)C(C)C)NC(=O)[C@@H]2CCCN2C(=O)[C@H](CCCN=C(N)N)NC(=O)[C@H](Cc2ccc(O)cc2)NC(=O)[C@H](C(C)C)NC(=O)[C@H](CCCN=C(N)N)NC1=O)C(C)C` (H-DTMRAMVCRVYRPCWEV-OH; disulfide 8-14), for which, in experiment [1], the EC50 entry was “Not Active”.
For `CSCC[C@H](NC(=O)[C@H](C)N)C(=O)N[C@H](C(=O)N[C@H]1CSSC[C@@H](C(=O)N[C@@H](Cc2c[nH]c3ccccc23)C(=O)N[C@@H](CCC(=O)O)C(=O)N[C@H](C(=O)O)C(C)C)NC(=O)[C@@H]2CCCN2C(=O)[C@H](CCCN=C(N)N)NC(=O)[C@H](Cc2ccc(O)cc2)NC(=O)[C@H](C(C)C)NC(=O)[C@H](CCCN=C(N)N)NC1=O)C(C)C` (H-AMVCRVYRPCWEV-OH; disulfide 4-10), the EC50 entry in experiment [3] was “Not Active”.
Regarding `CC(C)[C@H](NC(=O)[C@H](CCC(=O)O)NC(=O)[C@H](Cc1c[nH]c2ccccc12)NC(=O)[C@@H]1CSSC[C@H](N)C(=O)N[C@@H](Cc2ccc(O)cc2)C(=O)N[C@@H](CCCN=C(N)N)C(=O)N2CCC[C@H]2C(=O)N1)C(=O)O` (H-CYRPCWEV-OH; disulfide 1-5), in experiment [2], the EC50 entry is on record as “Not Active”.
Turning to `CSCC[C@H](NC(=O)[C@H](C)NC(=O)[C@H](CCCN=C(N)N)NC(=O)[C@H](CCSC)NC(=O)[C@@H](NC(=O)[C@@H](N)CC(=O)O)[C@@H](C)O)C(=O)N[C@H]1CSSC[C@@H](C(=O)N[C@@H](Cc2c[nH]c3ccccc23)C(=O)N[C@@H](CCC(=O)O)C(=O)N[C@H](C(=O)O)C(C)C)NC(=O)[C@@H]2CCCN2C(=O)[C@H](CCCN=C(N)N)NC(=O)[C@H](Cc2ccc(O)cc2)NC(=O)[C@H](C(C)C)NC(=O)[C@H](CCCN=C(N)N)NC(=O)CNC1=O` (H-DTMRAMCGRVYRPCWEV-OH; disulfide 7-14), in experiment [1], the EC50 result is given as “Not Active”.
For the molecule `CSCC[C@H](NC(=O)[C@H](C)N)C(=O)N[C@H]1CSSC[C@@H](C(=O)N[C@@H](Cc2c[nH]c3ccccc23)C(=O)N[C@@H](CCC(=O)O)C(=O)N[C@H](C(=O)O)C(C)C)NC(=O)[C@@H]2CCCN2C(=O)[C@H](CCCN=C(N)N)NC(=O)[C@H](Cc2ccc(O)cc2)NC(=O)[C@H](C(C)C)NC(=O)[C@H](CCCN=C(N)N)NC(=O)CNC1=O` (H-AMCGRVYRPCWEV-OH; disulfide 3-10), the EC50 entry in experiment [4] and in experiment [1] was “Not Active” each time.
For the molecule `CSCC[C@H](NC(=O)[C@H](C)NC(=O)[C@H](CCCN=C(N)N)NC(=O)[C@H](CCSC)NC(=O)[C@@H](NC(=O)[C@@H](N)CC(=O)O)[C@@H](C)O)C(=O)N[C@H](C(=O)NCC(=O)N[C@@H](CCCN=C(N)N)C(=O)N[C@H]1CSSC[C@@H](C(=O)N[C@@H](Cc2c[nH]c3ccccc23)C(=O)N[C@@H](CCC(=O)O)C(=O)N[C@H](C(=O)O)C(C)C)NC(=O)[C@@H]2CCCN2C(=O)[C@H](CCCN=C(N)N)NC(=O)[C@H](Cc2ccc(O)cc2)NC1=O)C(C)C` (H-DTMRAMVGRCYRPCWEV-OH; disulfide 10-14), the EC50 result in experiment [5] is reported as “Not Active”.
For `CC(C)[C@H](NC(=O)[C@H](CCC(=O)O)NC(=O)[C@H](Cc1c[nH]c2ccccc12)NC(=O)[C@@H]1CSSC[C@H](N)C(=O)NCC(=O)N[C@@H](CCCN=C(N)N)C(=O)N[C@@H](C(C)C)C(=O)N[C@@H](Cc2ccc(O)cc2)C(=O)N[C@@H](CCCN=C(N)N)C(=O)N2CCC[C@H]2C(=O)N1)C(=O)O` (H-CGRVYRPCWEV-OH; disulfide 1-8), in experiment [1], the EC50 result is reported as “Not Active”.
